# Measured values reported in ChEMBL document CHEMBL2010690, “Identification and evaluation of apoptotic compounds from Garcinia oligantha” (Bioorg Med Chem Lett, 2012).
# Calls of active or inactive are those of the source. The calls are words filed in the database; no cut-off is given here.
# Legend:
# Type in all cases: functional, cell-based
# HeLa C3 [1] = assay: Induction of apoptosis in human HeLaC3 cells assessed as caspase-3 activation at 2.5 uM after 72 hrs by YFP/CFP-based FRET analysis
# HeLa C3 [2] = assay: Induction of apoptosis in human HeLaC3 cells assessed as caspase-3 activation at 1 uM after 72 hrs by YFP/CFP-based FRET analysis
# HeLa [3] = assay: Cytotoxicity against human HeLa cells after 72 hrs by MTT assay
# HeLa C3 [4] = assay: Induction of apoptosis in human HeLaC3 cells assessed as caspase-3 activation at 5 uM after 72 hrs by YFP/CFP-based FRET analysis
# HeLa C3 [5] = assay: Induction of apoptosis in human HeLaC3 cells assessed as caspase-3 activation at 10 uM after 72 hrs by YFP/CFP-based FRET analysis
# HeLa [6] = assay: Induction of apoptosis in human HeLa cells assessed as increase in PARP cleavage at 5 uM after 24 hrs by Western blotting analysis
# HeLa [7] = assay: Induction of apoptosis in human HeLa cells assessed as increase in PARP cleavage at 5 uM after 48 hrs by Western blotting analysis
# HeLa [8] = assay: Induction of apoptosis in human HeLa cells assessed as increase in PARP cleavage at 10 uM after 48 hrs by Western blotting analysis
# HeLa [9] = assay: Induction of apoptosis in human HeLa cells assessed as increase in PARP cleavage at 10 uM after 24 hrs by Western blotting analysis
SMILES,Activity (HeLa C3 [1]),Activity (HeLa C3 [2]),IC50 (HeLa [3]),Activity (HeLa C3 [4]),Activity (HeLa C3 [5]),Activity (HeLa [6]),Activity (HeLa [7]),Activity (HeLa [8]),Activity (HeLa [9])
CC(C)=CCC1(CC=C(C)C)C(=O)C(O)=C(O)c2oc3cc4c(c(O)c3c(=O)c21)C=CC(C)(C)O4 [OLIGANTHIN A],Active,inactive,1580 nM,Active,Active,Active,Active,–,–
CC(C)=CCc1c(O)cc2oc3c(c(=O)c2c1O)C(CC=C(C)C)(CC=C(C)C)C(=O)C(O)(CC=C(C)C)C3=O (stereo unspecified) [OLIGANTHIN C],inactive,inactive,4150 nM,inactive,Active,–,–,–,–
CC(C)=CCC1(O)C(=O)c2oc3cc4c(c(O)c3c(=O)c2C(CC=C(C)C)(CC=C(C)C)C1=O)C=CC(C)(C)O4 (stereo unspecified) [OLIGANTHIN B],inactive,inactive,1520 nM,Active,Active,–,–,Active,Active
CO[C@@]12C=C3C(=O)c4c(O)cc(O)c(CC=C(C)C)c4O[C@@]34[C@@H](C1)C(C)(C)O[C@@]4(CC=C(C)C)C2=O [GAUDICHAUDIONE H],Active,inactive,900 nM,Active,Active,Active,Active,–,–
CC(=O)CC1(O)C(=O)c2oc3cc4c(c(O)c3c(=O)c2C(CC=C(C)C)(CC=C(C)C)C1=O)C=CC(C)(C)O4 (stereo unspecified) [OLIGANTHIN D],inactive,inactive,7820 nM,inactive,Active,–,–,–,–
